Source: US20050038000A1, “Methods and compositions for the treatment of amyloid-and epileptogenesis-associated diseases” (priority 2003, published 2005)

System: spontaneous recurrent seizures
Assay: "spontaneous recurrent seizures" (SRS) model of epilepsy
Assay type: in vivo
Conditions: rat, 20 mg/kg/day i.v. for 10 day
Method: The “spontaneous recurrent seizures” (SRS) model of epilepsy is used to evaluate candidate compounds in a model for Phase 1 epileptogenesis (see, e.g., Mello, E. et al., Epilepsia (1993) 34:985; Cavalheiro, J. et al., Epilepsia (1991) 32:778). In the SRS model, an adult male Sprague-Dawley rat (c. 260 g) is given kainic acid by injection ([…].). Within 25 minutes, the animal enters status epilepticus, which typically lasts for 15-20 hours (although about 10% of animals die at this stage). The rat is allowed to spontaneously recover and is given food and water ad lib. and maintained on a 12 hour light/dusk cycle. Beginning on about day 13-15, the rats develop spontaneous recurrent seizures, which occur at the rate of about 4-5 per week. The rats are videotaped 8 hours per day, and the videotapes are reviewed for behavioral seizures (including head nodding, forelimb clonus, and rearing), which are counted. The animals are watched for a few weeks to a few months (2 weeks to three months), permitting evaluation of a sufficient number of seizures. An experimental compound for evaluation can be administered at either of two times: Time 1, on Day 1, after the cessation of status epilepticus but before the onset of SRS; or Time 2, on Day 30, when the rats have been experiencing SRS for about two weeks. […]

**Q.** How did the “preventing the onset of seizures” value (administered at Time 1 (Day 1, before onset of SRS)) turn out when O=C1NC(=O)C(c2ccccc2)(c2ccccc2)N1 [phenytoin] was run?
**A.** ineffective

**Q.** And the “effective at decreasing seizure frequency by 50% or more” value (administered at Time 2 (Day 30, established SRS))?
**A.** 75%
